SMILES	melting point [°C]
C#Cc1ccc(-n2c(/C=C/c3cccc(OC(F)(F)F)c3)nc3ncccc3c2=O)cc1 [4d, (E)-3-(4-Ethynylphenyl)-2-(3-(trifluoromethoxy)styryl)pyrido[2,3-d]pyrimidin-4(3H)-one]	128 to 129
C#Cc1ccc(-n2c(/C=C/c3cc(OC)cc(OC)c3)nc3ncccc3c2=O)cc1 [4m, (E)-2-(3,5-Dimethoxystyryl)-3-(4-ethynylphenyl)pyrido[2,3-d]pyrimidin-4(3H)-one]	123 to 124
C#Cc1ccc(-n2c(/C=C/c3cc(OC)ccc3OC)nc3ncccc3c2=O)cc1 [4n, (E)-2-(2,5-Dimethoxystyryl)-3-(4-ethynylphenyl)pyrido[2,3-d]pyrimidin-4(3H)-one]	127 to 128
C#Cc1ccc(-n2c(/C=C/c3cccc4c3OCO4)nc3ncccc3c2=O)cc1 [4o, (E)-2-(2-(benzo[d][1,3]dioxol-4-yl)vinyl)-3-(4-ethynylphenyl)pyrido[2,3-d]pyrimidin-4(3H)-one]	125 to 126
C#Cc1ccc(-n2c(/C=C/c3c(OC)cc(OC)cc3OC)nc3ncccc3c2=O)cc1 [4r, (E)-3-(4-Ethynylphenyl)-2-(2,4,6-trimethoxystyryl)pyrido[2,3-d]pyrimidin-4(3H)-one]	124 to 125
C#Cc1ccc(-n2c(/C=C/c3c[nH]c4ccc(OC)cc34)nc3ncccc3c2=O)cc1 [4v, (E)-3-(4-ethynylphenyl)-2-(2-(5-methoxy-1H-indol-3-yl)vinyl)pyrido[2,3-d]pyrimidin-4(3H)-one]	114 to 115

The remaining lines, values ahead:

melting point [°C]	SMILES
123 to 124	C#Cc1ccc(-n2c(/C=C/c3ccc(F)cc3)nc3ncccc3c2=O)cc1 [4a, (E)-3-(4-Ethynylphenyl)-2-(4-fluorostyryl)pyrido[2,3-d]pyrimidin-4(3H)-one]
123 to 124	C#Cc1ccc(-n2c(/C=C/c3ccc(F)c(F)c3)nc3ncccc3c2=O)cc1 [4f, (E)-2-(3,4-Difluorostyryl)-3-(4-ethynylphenyl)pyrido[2,3-d]pyrimidin-4(3H)-one]
124 to 125	C#Cc1ccc(-n2c(/C=C/c3ccc(OC)c(F)c3)nc3ncccc3c2=O)cc1 [4h, (E)-3-(4-Ethynylphenyl)-2-(3-fluoro-4-methoxystyryl)pyrido[2,3-d]pyrimidin-4(3H)-one]
123 to 124	C#Cc1ccc(-n2c(/C=C/c3ccc(O)c(OC)c3)nc3ncccc3c2=O)cc1 [4k, (E)-3-(4-Ethynylphenyl)-2-(4-hydroxy-3-methoxystyryl)pyrido[2,3-d]pyrimidin-4(3H)-one]
123 to 124	C#Cc1ccc(-n2c(/C=C/c3ccc4[nH]ccc4c3)nc3ncccc3c2=O)cc1 [4u, (E)-2-(2-(1H-Indol-5-yl)vinyl)-3-(4-ethynylphenyl)pyrido[2,3-d]pyrimidin-4(3H)-one]

Source: patent US9783537B2, “3-(4-ethylnylphenyl) pyridopyrimidinone compounds and process for preparation thereof useful as potential anticancer agents” (Council of Scientific & Industrial Research, priority 2013, dated 2017)
